Values quoted from earlier work, collected in patent US20230226068A1, “METHOD, SYSTEM, FORMULATION AND KIT FOR THE TREATMENT OF ONYCHOMYCOSIS” (priority 2021, published 2023).
Like-named read-outs stand apart in the source and are kept apart here.

Conditions: for side effects: po

Row | Structure (SMILES) | safety profile (in vivo) | side effects (in vivo) | also measured
1 | CCC(C)(C)c1ccc(CC(C)CN2C[C@@H](C)O[C@@H](C)C2)cc1 (stereo partly shown) [Amorolfine] | local skin irritations |  | 
2 | Cc1cc(C2CCCCC2)n(O)c(=O)c1 [Ciclopirox] | local skin irritations |  | 
3 | C=C1CCN([C@H](C)[C@](O)(Cn2cncn2)c2ccc(F)cc2F)CC1 [Efinaconazole] | local skin irritations |  | 
4 | OC(Cn1cncn1)(Cn1cncn1)c1ccc(F)cc1F [Fluconazole] |  | liver enzyme abnormalities, headaches, as well as gastrointestinal problems or rashes | 
5 | CCC(C)n1ncn(-c2ccc(N3CCN(c4ccc(OCC5COC(Cn6cncn6)(c6ccc(Cl)cc6Cl)O5)cc4)CC3)cc2)c1=O (stereo not shown) [Itraconazole] |  | liver enzyme abnormalities, headaches, as well as gastrointestinal problems or rashes | 
6 | OB1OCc2cc(F)ccc21 [Tavaborole] |  |  | safety profile (topical treatment): local skin irritations
7 | CN(C/C=C/C#CC(C)(C)C)Cc1cccc2ccccc12 [Terbinafine] |  | liver enzyme abnormalities, headaches, as well as gastrointestinal problems or rashes | 
